Row | Structure (SMILES) | melting point
1 | CCc1ccc2c(c1)CC(=O)c1c(O)cc(O)cc1S2 [Example 48] | 179.1 to 180.1 °C
2 | Cc1ccc(-c2ccc3c(c2)Oc2cc(O)cc(O)c2CC3)cc1 [Example 112] | 195.1 to 197.1 °C
3 | Cc1ccc(-c2ccc3c(c2)Oc2cc(O)cc(O)c2C(=O)C3)cc1 [Example 71] | 208.8 to 210.2 °C
4 | O=C1Cc2cc(-c3cccnc3)ccc2Oc2cc(O)cc(O)c21 [Example 55] | 293.9 to 300.1 °C
5 | Oc1cc(O)c2c(c1)Oc1cc(-c3ccccc3)ccc1CC2 [Example 7, 7-Phenyl-10,11-dihydrodibenz[b,f]oxepin-1,3-diol] | 179.6 to 180.4 °C
6 | CCC1C(=O)c2cc(O)c(O)cc2Sc2cc(-c3ccco3)ccc21 (stereo not drawn) [Example 153] | 242.9 to 248.4 °C
7 | Nc1cccc(-c2ccc3c(c2)CCc2c(O)cc(O)cc2O3)c1 [Example 119] | 197.2 to 199.3 °C
8 | O=C1Cc2cc(-c3cc4ccccc4o3)ccc2Oc2cc(O)cc(O)c21 [Example 94] | 268.4 to 268.5 °C
9 | O=C1Cc2cc(-c3cccc([N+](=O)[O-])c3)ccc2Sc2cc(O)cc(O)c21 [Example 80] | > 250 °C (dec.)
10 | CCC1C(=O)c2cc(O)c(O)cc2Sc2ccc(SC)cc21 (stereo not drawn) [Example 36] | 199.6 to 200.5 °C
11 | Oc1cc(O)c2c(c1)Oc1ccc(-c3ccco3)cc1CC2 [Example 114] | 163.6 to 173.9 °C
12 | Cc1ccc(-c2ccc3c(c2)CC(=O)c2c(O)cc(O)cc2O3)cc1 [Example 60] | 174 to 175 °C
13 | O=C1Cc2cc(-c3ccco3)ccc2Oc2cc(O)cc(O)c21 [Example 57] | 171 to 172.7 °C
14 | Oc1cc(O)c2c(c1)Sc1ccc(Cl)cc1CC2 [Example 26] | 181.1 to 184.9 °C
15 | CC1C(=O)c2ccc(O)cc2Sc2ccccc21 (stereo not drawn) [Example 41] | 190 to 191.6 °C
16 | CCC1C(=O)c2cc(O)c(O)cc2Sc2ccc(-c3cccs3)cc21 (stereo not drawn) [Example 162] | 225.7 to 227.4 °C
17 | CCC1C(=O)c2cc(O)c(O)cc2Sc2cc(-c3cccs3)ccc21 (stereo not drawn) [Example 155] | 270.3 to 271.9 °C
18 | O=C1Cc2cc(-c3ccccc3)ccc2Sc2cc(O)cc(O)c21 [Example 78] | 190.8 to 195.3 °C
19 | CCC1C(=O)c2cc(O)c(O)cc2Sc2ccc(-c3ccco3)cc21 (stereo not drawn) [Example 159] | 238.7 to 241.7 °C
20 | Oc1cc(O)c2c(c1)Oc1cc(-c3cccc(C(F)(F)F)c3)ccc1CC2 [Example 117] | 150.2 to 152.6 °C
21 | Oc1cc2c(c(O)c1O)CCc1cc(-c3ccccc3)ccc1O2 [Example 125] | 175.1 to 178.3 °C
22 | CCCCC(=O)c1ccc2c(c1)CCc1c(O)cc(O)cc1O2 [Example 130] | 119.8 to 121.7 °C
23 | CCC1C(=O)c2cc(O)c(O)cc2Sc2ccc(-c3cc4ccccc4o3)cc21 (stereo not drawn) [Example 161] | 277.4 to 279.2 °C
24 | CCC1C(=O)c2cc(O)c(O)cc2Sc2cc(-c3ccc(-c4ccccc4)cc3)ccc21 (stereo not drawn) [Example 171] | > 300 °C

Row | Structure (SMILES) | melting point
25 | COc1cc(O)c2c(c1)Sc1ccc(Br)cc1CC2=O [Example 14] | 187.5 °C
26 | O=CNc1cccc(-c2ccc3c(c2)CC(=O)c2c(O)cc(O)cc2O3)c1 [Example 75] | 241 to 247.08 °C
27 | O=C1Cc2cc(Cl)ccc2Sc2cc(O)cc(O)c21 [Example 15] | 217.9 to 221.6 °C
28 | CCCC(=O)c1ccc2c(c1)CCc1c(O)cc(O)cc1O2 [Example 128] | 157.6 to 157.9 °C
29 | CCC1C(=O)c2cc(O)c(O)cc2Sc2cc(SC)ccc21 (stereo not drawn) [Example 46] | 179.8 to 183 °C
30 | O=C1Cc2ccc(-c3cccc(C(F)(F)F)c3)cc2Oc2cc(O)cc(O)c21 [Example 73] | 183 to 184.7 °C
31 | N#Cc1ccc2c(c1)CCc1c(O)cc(O)cc1S2 [Example 29] | 237.4 to 238.6 °C
32 | CCC1C(=O)c2cc(O)c(O)cc2Sc2cc(-c3cccc([N+](=O)[O-])c3)ccc21 (stereo not drawn) [Example 175] | 221.8 to 225 °C
33 | CCCCc1ccc2c(c1)CC(=O)c1c(O)cc(O)cc1S2 [Example 53] | 106.9 to 108.1 °C
34 | O=C1c2c(O)cc(O)cc2Sc2ccccc2C1Cc1ccccc1 (stereo not drawn) [Example 40] | 67.5 to 68.3 °C
35 | O=C1Cc2cc(-c3ccc(O)c(O)c3)ccc2Oc2cc(O)cc(O)c21 [Example 93] | > 250 °C
36 | Oc1cc(O)c2c(c1)Sc1ccc(-c3ccco3)cc1CC2 [Example 127] | 213.7 to 214.7 °C
37 | O=C1Cc2ccc(-c3ccc(-c4ccccc4)cc3)cc2Oc2cc(O)cc(O)c21 [Example 96] | 261.6 to 263.2 °C
38 | ON=C1Cc2ccccc2Oc2cc(O)cc(O)c21 [Example 24] | 208 to 213.7 °C
39 | CC1(C)C(=O)c2cc(O)c(O)cc2Sc2ccccc21 [Example 31] | 194.2 to 196.1 °C
40 | Cc1ccccc1-c1ccc2c(c1)Oc1cc(O)cc(O)c1C(=O)C2 [Example 72] | 163.5 to 165.8 °C
41 | O=[N+]([O-])c1cccc(-c2ccc3c(c2)CCc2c(O)cc(O)cc2O3)c1 [Example 120] | 199.6 to 201.8 °C
42 | O=C1Cc2cc(Br)ccc2Sc2cc(O)cc(O)c21 [Example 13] | 236.4 to 237.3 °C
43 | O=C1Cc2ccc(-c3cccs3)cc2Oc2cc(O)cc(O)c21 [Example 5, 3-(2-Thiophene)-7,9-dihydroxy-10,11-dihydrodibenz[b,f]oxepin-10-one] | 227.6 to 228.1 °C
44 | O=C1Cc2ccc(-c3ccco3)cc2Oc2cc(O)cc(O)c21 [Example 70] | 249.6 to 250.8 °C
45 | O=C1Cc2ccc(-c3ccc(O)c(O)c3)cc2Oc2cc(O)cc(O)c21 [Example 98] | 229.8 to 231.6 °C
46 | CCC1C(=O)c2cc(O)c(O)cc2Sc2cc(-c3ccc(O)cc3)ccc21 (stereo not drawn) [Example 177] | 155.4 to 159.4 °C
47 | O=C1Cc2cc(-c3ccccc3)ccc2Oc2cc(O)cc(O)c21 [Example 54] | 170.3 to 172 °C

Results, then the molecule that gave them:

Row | melting point | Structure (SMILES)
48 | 125.9 to 127.7 °C | O=C1Cc2ccc(CCc3ccccc3)cc2Oc2cc(O)cc(O)c21 [Example 51]
49 | 208.9 to 213.6 °C | O=C1Cc2cc(-c3cccc(Cl)c3)ccc2Oc2cc(O)cc(O)c21 [Example 61]
50 | 240.1 to 246.1 °C | O=C1Cc2cc(-c3cccs3)ccc2Sc2cc(O)cc(O)c21 [Example 76]
51 | 124 to 125.8 °C | O=C1Cc2cc(-c3ccccc3)ccc2Oc2cc(O)c(O)c(O)c21 [Example 88]
52 | 251.4 to 255.5 °C (dec.) | CCC1C(=O)c2cc(O)c(O)cc2Sc2ccc(-c3cc4ccccc4s3)cc21 (stereo not drawn) [Example 172]
53 | 152.1 to 153.4 °C | CC1C(=O)c2c(O)cc(O)cc2Sc2ccccc21 (stereo not drawn) [Example 39]
54 | 155.1 to 158.7 °C | CCCCC(=O)c1ccc2c(c1)CCc1c(O)cc(O)cc1S2 [Example 131]
55 | 151.7 to 153.7 °C | CC(C)(C)c1ccc2c(c1)CCc1c(O)cc(O)cc1S2 [Example 137]
56 | 121 to 123 °C | CCCc1ccc2c(c1)CC(=O)c1c(O)cc(O)cc1O2 [Example 47]
57 | 159 to 160.3 °C | CCC(=O)c1ccc2c(c1)CCc1c(O)cc(O)cc1O2 [Example 10, 8-Propionyl-10,11-dihydrodibenz[b,f]oxepin-1,3-diol]
58 | 227.2 to 229.9 °C | CCC1C(=O)c2cc(O)c(O)cc2Sc2cc(Br)ccc21 (stereo not drawn) [Example 45]
59 | 167.4 to 168.2 °C | CCC1C(=O)c2c(O)cc(O)cc2Sc2ccc(SC)cc21 (stereo not drawn) [Example 35]
60 | 110.7 to 112.4 °C | CCON=C(C)c1ccc2c(c1)CCc1c(O)cc(O)cc1S2 [Example 139]
61 | 216.8 to 219.1 °C | CCC1C(=O)c2cc(O)c(O)cc2Sc2cc(-c3ccc(OC(F)(F)F)cc3)ccc21 (stereo not drawn) [Example 169]
62 | 137.1 to 143.2 °C | Oc1cc(O)c2c(c1)Oc1cc(-c3cccc(Cl)c3)ccc1CC2 [Example 118]
63 | 125.2 to 126.9 °C | C[Si](C)(C)CCc1ccc2c(c1)CCc1c(O)cc(O)cc1O2
64 | 178.1 to 198.3 °C | Cc1ccccc1-c1ccc2c(c1)Sc1cc(O)cc(O)c1C(=O)C2 [Example 89]

Row | melting point | Structure (SMILES)
65 | 238 to 244.1 °C | CCC1(CC)C(=O)c2cc(O)c(O)cc2Sc2ccccc21 [Example 3]
66 | 151.8 to 152.7 °C | Oc1cc(O)c2c(c1)Oc1ccc(CCc3ccccc3)cc1CC2 [Example 113]
67 | 135.6 to 137.6 °C | CCCCCCc1ccc2c(c1)CCc1c(O)cc(O)cc1O2
68 | 175.5 to 176.8 °C | CCC1C(=O)c2cc(O)c(O)cc2Sc2cc(-c3cccc(Cl)c3)ccc21 (stereo not drawn) [Example 157]
69 | 211.8 to 217.3 °C | N#Cc1ccc2c(c1)CCc1c(O)cc(O)cc1O2 [Example 122]
70 | 228.3 to 230 °C | Nc1cccc(-c2ccc3c(c2)Oc2cc(O)cc(O)c2C(=O)C3)c1 [Example 74]
71 | 251.6 to 253.8 °C | O=C1Cc2ccc(-c3cc4ccccc4o3)cc2Sc2cc(O)cc(O)c21 [Example 92]
72 | 225.7 to 227.3 °C | CCC1C(=O)c2cc(O)c(O)cc2Sc2ccc(-c3ccccc3)cc21 (stereo not drawn) [Example 163]
73 | 244.3 to 250.7 °C | O=C1Cc2cc(-c3cccc([N+](=O)[O-])c3)ccc2Oc2cc(O)cc(O)c21 [Example 56]
74 | 188.3 to 191.4 °C | Oc1cc(O)c2c(c1)Oc1ccc(-c3cccs3)cc1CC2 [Example 111]
75 | 151.8 to 152.8 °C | CCCC(=O)c1ccc2c(c1)CCc1c(O)cc(O)cc1S2 [Example 129]
76 | 142.2 to 143.5 °C | O=C(c1ccc2c(c1)CCc1c(O)cc(O)cc1S2)C1CC1 [Example 135]
77 | 274 to 279 °C (dec.) | CC(=O)c1ccc(-c2ccc3c(c2)CC(=O)c2c(O)cc(O)cc2O3)cc1 [Example 65]
78 | 243.5 to 248.4 °C (dec.) | O=C1Cc2cc(-c3ccco3)ccc2Sc2cc(O)cc(O)c21 [Example 84]
79 | 235.6 to 237.4 °C | CCC1C(=O)c2cc(O)c(O)cc2Sc2ccc(Br)cc21 (stereo not drawn) [Example 44]
80 | 91.8 to 94.8 °C | Cc1ccccc1-c1ccc2c(c1)CC(=O)c1c(O)cc(O)cc1O2 [Example 62]
81 | > 250 °C (dec.) | O=C1Cc2ccc(I)cc2Sc2cc(O)cc(O)c21 [Example 8, 3-Iodo-7,9-dihydroxy-10,11-dihydrodibenzo[b,f]thiepin-10-one]

From patent publication US6700013B2, “Tricyclic fused heterocycle compounds, process for preparing the same and use thereof” (Nippon Suisan Kaisha, Ltd., priority 1999, dated 2004)
